Experimental data as given in US20240398980A1, “NUCLEIC ACID-CONJUGATED POLYMERIC NANOPARTICLES AND METHODS OF USE” (The Brigham and Women's Hospital, Inc., priority 2021, published 2024).

Assays:
B16-F10 tumors = assay: In vivo therapeutic efficacy, B16-F10 melanoma; design: species or system mice; conditions: B16-F10, 0.5 μg CDN i.v. x3, 4 d apart
Protocol: In vivo therapeutic efficacy: B16-F10, 4T1, and CT-26 cells were injected subcutaneously into the right flank of 6-8-week-old female mice (of the appropriate background for the cell type) in 100 μL HBSS at densities of 5×10^5, 1×10^6, and 1×10^6 cells/injection, respectively. Approximately 7 days post tumor inoculation (˜50 mm^3), mice were subjected to intravenous injection (100 μL) of free CDN or CDN-NP at a CDN dose of 0.5 μg. Mice were injected 3 times with treatments spaced 4 d apart. Groups receiving checkpoint blockade were injected intraperitoneally 24 h post systemic administration with 100 μg anti-PD-1 (clone RMP1.14, Bio X Cell). The tumor size was measured every other day via caliper measurements and the tumor volume calculated using the equation V=L×W×H×(π/6). Body weight was measured contemporaneously with tumor volume.

[1] = tested on: immune cell populations in the TME, tdLN, and spleen; assay: Immunophenotyping by flow cytometry in B16-F10 tumor-bearing mice; assay type: in vivo, C57BL6/J mice
Protocol: Immunophenotyping analysis: Subcutaneous B16-F10 tumors were established in female C57BL6/J mice (6-8 weeks old), as previously described. The treatment groups were: PBS (untreated control), aPD-1 mAb, free CDN, free CDN with aPD-1 mAb, CDN-NPs, and CDN NPs with aPD-1 mAb. CDN formulations (free drug or NP, 0.5 μg CDN) were administered intravenously and aPD-1 mAb (100 μg) was administered intraperitoneally 24 h after CDN treatment. Dendritic cells and macrophages were assessed 48 h after treatment and T cells were analyzed 7 days post-treatment. Tumors were harvested, chopped, and digested in a solution of HBSS supplemented with collagenase I, II, and IV (100 ng/mL) and DNase I […] for 2 h at 37° C. TdLNs and spleens were harvested and mechanically dissociated. Single cell suspensions of tumors, tdLNs, and spleens were filtered through a 40 µm nylon cell strainer. Spleen and tumor cells were further treated with ACK Lysing Buffer (Gibco). Cells were washed, filtered through a 40 μm nylon cell strainer, and counted. For intracellular IFN-γ cytokine analysis, 1×10^6 cells were seeded in a 24-well plate in DMEM containing 10% (v/v) FBS and supplemented with PMA/ionomycin/Brefeldin A cocktail (BioLegend). After 4 h, the cells were washed and stained in 100 μL cell staining buffer (BioLegend). Intracellular staining was performed using an intracellular staining permeabilization wash buffer (BioLegend) The following anti-mouse antibodies were used for flow cytometry were purchased from BioLegend: CD45 APC-Cy7 (clone 30-F11), NK-1.1 BV710 (clone PK136), IFN-γ BV421 (clone XMG1.2), CD279 (PD-1) FITC (clone 29F.1A12), CD45 BV785 (clone 30-F11), CD11b BV421 (clone M1/70), Ly-6C APC-Cy7 (clone HK1.4), Ly-6G BV661 (clone 1A8), CD8a BV421 (clone 53-6.7), CD86 BV510 (clone GL-1), CD80 BV711 (clone 16-10A1), CD206 PE (clone C068C2), MHCII BV605 (clone M5/114.15.2), CD11c APC (clone N418), Siglec H PE (clone 551), and CD44 BV786 (clone IM7).
The following anti-mouse antibodies were purchased from BD Biosciences: CD3 BB700 (clone 17A2), CD4 BUV395 (clone GK1.5), CD8a BUV737 (clone 53-6.7), F4/80 BUV395 (clone T45-2342), CD103 BUV395 (clone M290), CD80 BUV737 (clone 16-10A1), ki67 BV510 (clone B56), CD69 BV605 (clone H1.2F3), and CD62L PE-CF594 (clone MEL-14). Live cells were gated using LIVE/DEAD™ (Thermo Fisher) aqua (cat. no. L34966), green (cat. no. L34970), or near-IR (cat. no. L34976). Stained cells were analyzed by flow cytometry using a BD LSRFortessa™ flow cytometer (BD Biosciences) and all data were analyzed using FlowJo software (FlowJo LLC).

[2] = tested on: bone-marrow derived macrophages (BMDMs); assay: Primary immune cell activation, flow cytometry; assay type: cell-based, C57BL/6 mice
Protocol: BMDC and BMDM isolation: The tibias and femurs of female wild type or goldenticket C57BL/6 mice (aged 8-12 weeks) were isolated and flushed to harvest bone marrow and to obtain a progenitor cell population. To generate BMDMs, 4-6×10^6 bone marrow cells were cultured in non-tissue culture treated T175 flasks with 25 mL of DMEM/F12 supplemented with 10% (v/v) FBS, 1% (v/v) P/S, 5% (v/v) GlutaMAX and recombinant murine macrophage-colony-stimulating factor (M-CSF, 20 ng/mL). The flasks were supplemented with additional medium on day 3 and day 6. To generate BMDCs, 2×10^6 bone marrow cells were added to non-tissue culture-treated petri dishes and cultured in 10 mL of RPMI-1640 supplemented with 10% (v/v) FBS, 1% (v/v) and recombinant murine granulocyte-macrophage colony-stimulating factor (GM-CSF, 20 ng/mL), 10 mL more of which was added on day 3. […]
Assessment of primary immune cell activation: BMDCs or BMDMs were seeded in 24-well plates at 2×10^5 cells per well and incubated with the CDN-NP or free CDN at equal CDN concentrations ranging from 1-100 nM. […] After 24 hours, the supernatant was removed and cells were then collected, washed, stained, fixed, and analyzed by flow cytometry. […] In addition, IFN-0, IL-6, and TNF-α were analyzed from the supernatant using a custom Legendplex™ panel (BioLegend) as per the manufacturer's instructions.

[3] = Pharmacokinetics in plasma after i.v. administration (LC-MS-MS and fluorescence); assay type: in vivo, C57BL/6 mice; conditions: 15 min after i.v.
Protocol: Pharmacokinetics of CDN-NPs: Non-tumor bearing 6-8-week-old female C57BL/6 mice were injected i.v. (100 μL per mouse) with fluorescent CDN-NPs and whole blood was collected 0.25, 0.5, 1, 3, 6, and 24 h post injection in Eppendorf tubes containing heparin though submandibular bleed (for early time points) or cardiac puncture (for late time points). Plasma was obtained by centrifugation for 20 mins at 10000×g. Fluorescent CDN-NPs were quantified using a 640 nm excitation and 680 emission wavelength by plate reader and CDN was also quantified by LC-MS/MS.

[4] = tested on: interferon regulatory factor (IRF)3 activity; assay: IRF3 reporter activity in THP-1 Dual cells (QUANTI-Luc); assay type: cell-based, Human; conditions: for IRF and NF-kB activation compared with 2.3cGAMP: THP-1 reporter cell line, FIG. 30
Protocol: (§1) In vitro evaluation of CDN-NP activity: Human monocyte THP-1 Dual™ cells, THP-1 Dual™ KO-STING cells, RAW-Lucia™ ISG cells and RAW-Lucia™ ISG KO-STING cells were seeded in 96-well plates at 1×10^5 cells per well and incubated with the CDN-NP or free CDN at CDN concentrations ranging from 0-500 nM. At 24 h post treatment, interferon regulatory factor (IRF)3 activity was examined using the QUANTI-Luc™ reagent (InvivoGen) and NF-κB activity (only THP-1 Dual™ cells) was determined using the QUANTI-Blue™ reagent (InvivoGen) according to the manufacturer's instructions.

IRF response = assay: IRF reporter response in RAW-Lucia ISG cells; assay type: cell-based, murine
Protocol: as §1

[5] = tdLN, 7 d after single treatment

| Structure (SMILES) | tumor growth and survival (B16-F10 tumors) | CD86 expression on DCs in the spleen ([1]; 48 h after i.v., B16-F10) | proportion of CD4+ T cells secreting IFN-γ in the TME ([1]; 7 d, ex vivo restimulation) | proportion of CD8+ T cells secreting IFN-γ in the TME ([1]; 7 d, ex vivo restimulation) | CD4+ central memory T cells (TCM) [1, 5] | CD4+ effector memory T cells (TEM) [1, 5] | dose required to achieve the same degree of CD86 upregulation (15-fold) [2] | CDN (nM) in plasma [3] | CDN (nM) in plasma ([3]; listed as free CDNs) | EC50 ([4]; THP-1 Dual cells, 24 h, read-out: EC50 IRF3 activation) | IRF and NF-kB activation compared with 2.3cGAMP [4] | EC50 (IRF response) |
| --- | --- | --- | --- | --- | --- | --- | --- | --- | --- | --- | --- | --- |
| Nc1nc2c(ncn2[C@@H]2O[C@@H]3CO[P@@](=O)(S)O[C@H]4C[C@H](Oc5ccncn5)C[C@@H]4CO[P@@](=O)(S)O[C@@H]2[C@@H]3O)c(=O)[nH]1 [free CDN, 2-Amino-9-[(2R,5R,7R,8R,10R,12aR,14R,15aS,16R)-16-hydroxy-2,10-dioxido 14-(pyrimidin-4-yloxy)-2,10-disulfanyldecahydro-5,8 methanocyclopenta[1][1,3,6,9,11,2,10]pentaoxadiphosphacyclotetradecin-7-yl]-1,9-dihydro-6H-purin-6-one] | only a modest suppression of tumor growth and no increase in survival | 8.4±1.3% | 4.0±1.0% | 15.7±3.5% | 6.2±0.4% | 5.3±0.8% | 100 nM | <5 nM | < 5 nM | 1150 nM | higher IRF and NF-kB activation than 2.3cGAMP | > 1000 nM |
| CC(C)[C@H](NC(=O)CCCCCN1C(=O)C=CC1=O)C(=O)N[C@@H](C)C(=O)Nc1ccc(COC(=O)N(C)Cc2ccccc2C(=O)Nc2nc3c(ncn3[C@@H]3O[C@@H]4CO[P@@](=O)(S)O[C@H]5C[C@H](Oc6ccncn6)C[C@@H]5CO[P@@](=O)(S)O[C@@H]3[C@@H]4O)c(=O)[nH]2)cc1 [CDN-linker, 4-{[(2S)-2-{[(2S)-2-{[6-(2,5-Dioxo-2,5-dihydro-1H-pyrrol-1 yl)hexanoyl]amino}-3-methylbutanoyl]amino}propanoyl]amino}benzyl [2-({9[(2R,5R,7R,8R,10R,12aR,14R,15aS,16R)-16-hydroxy-2,10-dioxido-14-(pyrimidin-4-yloxy)-2,10-disulfanyldecahydro-5,8-methanocyclopenta[1][1,3,6,9,11,2,10]Pentaoxadiphosphacyclotetradecin-7-yl]-6-oxo-6,9-dihydro-1H-purin-2-yl}carbamoyl)benzyl]methylcarbamate] | – | – | – | – | – | – | – | – | – | – | higher IRF and NF-kB activation than 2.3cGAMP | – |
